Entries after “also recorded” stand apart in the source; their conditions may differ.
Legend:
[1] = test system: splenocytes of tumor-bearing mice; conditions: dietary; cited from earlier work
[2] = Plasma astaxanthin by reverse phase HPLC in supplemented human subjects; assay type: in vivo; set-up: Astaxanthin Levels (plasma): unit not given here; conditions: for Astaxanthin Levels (plasma): oral
Description: (§1) Free-living healthy female Korean subjects (average age 21.5 years) were recruited at Inha University, Korea. A three-day dietary record was obtained prior to the study to provide background dietary information. Subjects had no history of diabetes, cancer or alcohol abuse, and were non-smokers. They were allowed to consume their normal diets but advised to restrain from eating astaxanthin-rich foods. Subjects were assigned to receive 0 (control), 2, or 8 mg astaxanthin (109 g astaxanthin/kg oleoresin concentrate from Haematococcus pluvialis, astaZanthin™, La Haye Laboratories Inc., Redmond, Wash.) (n=14 subjects/diet) for eight weeks in a double-blind placebo control study. The astaxanthin was administered in the form of one soft gel capsule taken every morning. Blood was again drawn on week 0, 4 and 8 to assess immune function and oxidative status.
HPLC. Astaxanthin content in plasma was analyzed by reverse phase HPLC (Alliance 2690 Waters HPLC system fitted with a photodiode array detector, Waters, Milford, Mass.) as previously described (Park et al., J Nutr. 128(10):1650-1656, 1998). Trans-β-apo-8′carotenal (Sigma Chem. Co., St. Louis, Mo.) was used as the internal standard.

human subjects = experiment: Delayed-type hypersensitivity (DTH) response to intracutaneous tuberculin; assay type: in vivo
Description: as §1
Delayed-type hypersensitivity. Delayed-type hypersensitivity (DTH) response to an intracutaneous injection of tuberculin (Mono-Vacc Test (O.T.), Pasteur Merieux Connaught, France) was assessed on week 8. The injection was administered by a physician and skin thickness and induration were measured at 0, 24, 48 and 72 hours after challenge. In general, DTH response was maximal at 48 to 72 h post-injection (FIG. 9). Subjects fed 2 mg astaxanthin had higher (P<0.08) DTH response than unsupplemented controls.

[3] = test system: peripheral blood mononuclear cell (PBMC); experiment: Mitogen-induced lymphoproliferation, whole blood cultures; assay type: in vivo, human; conditions: especially 8 mg; significant (P<0.05) on wk 8
Description: as §1
Lymphoproliferation. The proliferation response of peripheral blood mononuclear cell (PBMC) to PHA (2 and 10 mg/L final concentration), concanavalin A (Con A; 2 and 10 mg/L), and pokeweed mitogen (PWM; 1 and 5 mg/L) was assessed using whole blood cultures as described (Chew et al., J Nutr. 130(8):1910-1913, 2000). Whole blood was cultured in order to mimic in vivo conditions. Results were calculated as stimulation index (cpm of mitogen-stimulated culture/cpm of unstimulated cultures). Astaxanthin supplementation, especially those given 8 mg astaxanthin, increased lymphocyte proliferation when stimulated by the T cell-dependent mitogens PHA (FIG. 2) and Con A (FIG. 3), and also B cell mitogen (PWM, FIG. 4). The increases were significant (P<0.05) on wk 8 for all mitogens.

[4] = test system: CD3 (total T), CD4 (Th), CD8 (Tc), NK, CD21 (B cells); experiment: Leukocyte subsets by flow cytometry; assay type: in vivo, human
Description: as §1
(§2) Leukocyte subset. Subpopulations of CD3 (total T), CD4 (Th), CD8 (Tc), NK (natural killer), and CD21 (B cells) were quantitated by flow cytometry as previously described (Chew et al. 2000). In addition, the distribution of the cell surface adhesion molecules ICAM-1 (CD54), LFA-1 (CD11a) and LFA-3 (CD58), also was measured by flow cytometry. The population of total T cells was higher (P<0.05) in astaxanthin-fed (both levels) subjects than unsupplemented controls on wk 4 and 8 (FIG. 6). The population of B cells also was higher (P<0.05) in subjects given 2 mg astaxanthin after 8 weeks (FIG. 7).

[5] = test system: ICAM-1 (CD54), LFA-1 (CD11a) and LFA-3 (CD58); experiment: Cell surface adhesion molecules by flow cytometry; assay type: in vivo, human; conditions: for frequency of cells expressing LFA-1 marker: week 8 (control 31.8%)
Description: as §1, §2

K562 target cells = experiment: Natural killer cell cytotoxic activity (PBMC effector, MTT); assay type: in vivo, human; conditions: 8 mg daily, wk 8, effector:target ratio 10:1, P<0.05
Description: as §1
Natural killer cell cytotoxic activity. Effector (PBMC) and target (K562) cells were cultured at effector:target ratios of 5:1 and 10:1 in Dulbecco's Modified Eagles Medium (Sigma, St. Louis, Mo.) containing 100 mL/L fetal bovine serum, 100 U/mL penicillin, and […] streptomycin sulfate. Killing was assessed using MTT. Percent of specific cytotoxicity calculated as follows: % Specific cytotoxicity=1−(ODeffector+target−ODeffector)/ODtarget×100. […]

[6] = test system: 8-Hydroxy-2′-deoxyguanosine (8-OHdG); experiment: Oxidative damage to DNA: plasma 8-OHdG by ELISA; assay type: in vivo, human; set-up: Average Levels of 8-OHdG (plasma): unit not given here; conditions: for Average Levels of 8-OHdG (plasma): oral
Description: as §1
Oxidative damage to DNA. 8-Hydroxy-2′-deoxyguanosine (8-OHdG) was measured in plasma by ELISA (BIOXYTECH™ 8-OHhdG-EIA Kit, OxisResearch, Portland, Oreg.; sensitivity=0.5 μg/L).

[7] = test system: 8-epi-prostaglandin F2α (8-isoprostane); experiment: Lipid peroxidation: plasma 8-isoprostane by ELISA; assay type: in vivo, human; conditions: 2 or 8 mg daily, 8 weeks
Description: as §1
Lipid-peroxidation. Plasma concentrations of 8-epi-prostaglandin F2α (8-isoprostane) was measured by ELISA.

rats = rats fed 400 ppm for 41 days; cited from earlier work
[8] = test system: UVA-induced oxidative stress; conditions: in vitro; cited from earlier work
[9] = cited from earlier work
[10] = mice fed the same amount of these carotenoids; cited from earlier work
lipid peroxidation = conditions: cited from earlier work
[11] = test system: cytotoxic T lymphocyte activity and IFN-γ production; conditions: astaxanthin-fed mice; cited from earlier work
splenocytes = conditions: mice; cited from earlier work

CC1=C[C@H](O)CC(C)(C)[C@H]1/C=C/C(C)=C/C=C/C(C)=C/C=C/C=C(C)/C=C/C=C(C)/C=C/C1=C(C)C[C@@H](O)CC1(C)C [lutein]
IFN-γ mRNA expression [1]: increased
expression of IL-10 [1]: decreased

CC1=C(/C=C/C(C)=C/C=C/C(C)=C/C=C/C=C(C)/C=C/C=C(C)/C=C/C2=C(C)C(=O)C(O)CC2(C)C)C(C)(C)CC(O)C1=O (stereo not drawn) [astaxanthin, 3,3′-dihydroxy-beta,beta-carotene-4,4′-dione]
Astaxanthin Levels (plasma) ([2]; 2 mg astaxanthin daily, 4 week): 0.0960
Astaxanthin Levels (plasma) ([2]; 2 mg astaxanthin daily, 8 week): 0.0921
Astaxanthin Levels (plasma) ([2]; 8 mg astaxanthin daily, 4 week): 0.1309
Astaxanthin Levels (plasma) ([2]; 8 mg astaxanthin daily, 8 week): 0.1162
plasma astaxanthin prior to feeding ([2]; week 0): undetectable
plasma astaxanthin, change on feeding ([2]; weeks 4 and 8, dose-dependently, P<0.01): increased
DTH response vs unsupplemented controls (human subjects; 2 mg daily, week 8, P<0.08): higher
DTH response vs unsupplemented controls (human subjects; 8 mg daily, week 8): did not show a similar heightened DTH response
Con A-induced lymphocyte proliferation (stimulation index) [3]: increased; also recorded: stimulated
PHA-induced lymphocyte proliferation (stimulation index) [3]: increased; also recorded: stimulated
PWM-induced lymphocyte proliferation (stimulation index) [3]: increased; also recorded: stimulated
population of B cells ([4]; 2 mg daily, after 8 weeks, P<0.05): higher
population of B cells ([4]; 8 mg daily): did not elevate
population of Th, Tc or NK cells or ratio of Th:Tc cells ([4]; 2 or 8 mg daily): did not significantly influence
population of total T cells vs unsupplemented controls ([4]; both levels (2 and 8 mg), wk 4 and 8, P<0.05): higher; also recorded: increased
expression of LFA-1 adhesion molecules ([5]; 2 mg daily, P<0.05): increased
frequency of cells expressing LFA-1 marker ([5]; 2 mg daily): 42.1%
frequency of cells expressing LFA-1 marker ([5]; 8 mg daily): 30.6%
ICAM-1 or LFA-3 expression ([5]; 2 or 8 mg daily): No similar dietary effect
NK cell cytotoxic activity (K562 target cells): higher; also recorded: increased
Average Levels of 8-OHdG (plasma) ([6]; 2 mg astaxanthin daily, 0 week (baseline)): 23.4
Average Levels of 8-OHdG (plasma) ([6]; 2 mg astaxanthin daily, 4 week): 13.8
Average Levels of 8-OHdG (plasma) ([6]; 2 mg astaxanthin daily, 8 week): 14.4
Average Levels of 8-OHdG (plasma) ([6]; 8 mg astaxanthin daily, 0 week (baseline)): 23.5
Average Levels of 8-OHdG (plasma) ([6]; 8 mg astaxanthin daily, 4 week): 15.3
Average Levels of 8-OHdG (plasma) ([6]; 8 mg astaxanthin daily, 8 week): 13.2
further decrease of DNA damage with higher dose ([6]; 8 mg vs 2 mg daily): did not decrease further
plasma 8-oxodG concentration vs unsupplemented subjects ([6]; 2 or 8 mg daily, as early as wk 4, P<0.01): dramatically lower
reduction in 8-OHdG (blood DNA damage) ([6]; after 4 weeks of feeding): > 35%
lipid peroxidation measured in the plasma (8-isoprostane) [7]: did not significantly influence
effects on body/organ weight, enzyme activities, pregnancy, or litter size (rats): no harmful effects
protection against UVA-induced oxidative stress relative to lutein and β-carotene [8]: approximately 100 fold
solubility in oil ([9]; oil): extremely low
solubility in water ([9]; water): substantially insoluble
concentration in plasma vs β-carotene, lutein [10]: much higher
inhibiting lipid peroxidation vs β-carotene and vitamin E (lipid peroxidation): more effective
cytotoxic T lymphocyte activity and IFN-γ production [11]: increased
ex vivo antibody response of splenocytes to T-cell antigens (splenocytes): increased

— patent US20060217445A1, “Natural astaxanthin extract reduces dna oxidation” (priority 2003, published 2006)
